Two compounds from PMC3308910 (2012) can be followed below.

Molecules are shown by their SMILES.

The target in assay [1] is cytochrome bc1 complex (ubiquinol:cytochrome c oxidoreductase; respiratory complex III) (Homo sapiens, UniProt P00156). The class given is biochemical.
Assay [2] has as its target T1, cytochrome bc1 complex (ubiquinol:cytochrome c oxidoreductase; respiratory complex III) (Plasmodium falciparum, UniProt Q02768).
T1 sequence (Q02768 1-376): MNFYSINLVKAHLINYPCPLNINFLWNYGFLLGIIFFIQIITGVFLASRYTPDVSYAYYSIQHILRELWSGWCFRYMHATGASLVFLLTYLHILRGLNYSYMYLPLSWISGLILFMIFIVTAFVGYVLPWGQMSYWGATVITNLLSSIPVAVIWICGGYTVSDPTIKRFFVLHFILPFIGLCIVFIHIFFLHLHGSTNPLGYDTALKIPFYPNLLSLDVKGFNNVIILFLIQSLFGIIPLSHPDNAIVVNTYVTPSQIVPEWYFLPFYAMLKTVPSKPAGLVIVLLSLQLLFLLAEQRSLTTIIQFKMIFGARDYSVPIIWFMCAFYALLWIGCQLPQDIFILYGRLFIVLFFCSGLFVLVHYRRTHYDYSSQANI
The class given is biochemical.

Chain of cytochrome bc1 complex (ubiquinol:cytochrome c oxidoreductase; respiratory complex III) (Homo sapiens, UniProt P00156) (P00156 whole entry, one chain of several): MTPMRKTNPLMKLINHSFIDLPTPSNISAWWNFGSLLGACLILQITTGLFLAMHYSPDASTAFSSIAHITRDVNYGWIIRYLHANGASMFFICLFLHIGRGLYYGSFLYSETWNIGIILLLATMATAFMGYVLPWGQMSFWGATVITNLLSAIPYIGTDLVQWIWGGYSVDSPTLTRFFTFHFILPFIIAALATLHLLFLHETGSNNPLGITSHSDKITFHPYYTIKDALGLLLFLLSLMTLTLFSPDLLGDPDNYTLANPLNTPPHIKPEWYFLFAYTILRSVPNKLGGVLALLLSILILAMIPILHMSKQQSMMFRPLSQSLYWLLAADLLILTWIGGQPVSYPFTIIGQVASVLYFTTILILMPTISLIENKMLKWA

For orientation: IC50 means the concentration that gives 50% inhibition. `O=C1C(O)=C([C@H]2CC[C@H](c3ccc(Cl)cc3)CC2)C(=O)c2ccccc21` [Atovaquone]: the IC50 in assay [1] was determined as 327 ± 30 nM. In assay [2], `CCCCCCCCCCOc1cc2c(O)c(C(=O)OCC)cnc2cc1OCC` [Decoquinate] displayed an IC50 of 2 ± 0.5 nM.
